In EP0855398B1, “SESQUITERPENE DERIVATIVES HAVING ANTIVIRAL ACTIVITY” (SHIONOGI & CO., LTD., priority 1995, dated 1997):
In brackets after ≈: the same amount, converted by molar mass. Where two headings read alike, the source gives them in different places.

Legend:
[1] = system: Influenza virus A/WSN/33 (H1N1); assay: microbe, parasite or virus in culture; assay type: cell-based; details: 72 h
in vitro = details: bovine
[2] = viral strain: Influenza virus A/WSN/33 (H1N1), Cell: MDBK, […], 3 days, read-out: IC50

SMILES	IC50 [1, 2] [µg/mL]	CC50 (in vitro) [µg/mL]	IC50 ([1]; H1N1|WSN, MDBK) [µg/mL]
C[C@H]1CC[C@H]2C(C)(C)[C@@H](NC(=O)Nc3ccccc3)CC[C@]23Oc2c(c(O)cc4c2CNC4=O)C[C@]13C [Compound (47e), (6aR, 7S, 9aS, 11S, 13aS)-2,3,6,6a, 7,8,9,9a, 10, 11, 12, 13-dodecahydro-5-hydroxy-6a, 7, 10, 10-tetramethyl-11-(3-phenylureido)-3-oxo-1H-benzo[8,8a][1]benzopyrano[2,3-e]isoindole]	0.025 (≈ 0.0496 µM)	> 10	–
C[C@H]1CC[C@H]2C(C)(C)[C@@H](O)[C@@H](O)C[C@]23Oc2c(c(O)cc4c2CNC4=O)C[C@]13C [Compound (50a), (6a R, 7 S, 9a S, 11 R, 12 S, 13a S)-2,3,6,6a, 7,8,9,9a, 10, 11, 12, 13-dodecahydro-5,11,12-trihydroxy-6a, 7, 10, 10-tetramethyl-3-oxo-1H-benzo[8,8a][1]benzopyrano[2,3-e]isoindole]	0.004 (≈ 0.00996 µM)	> 40	–
CC(=O)O[C@H]1C[C@@]23Oc4c(c(O)cc5c4CNC5=O)C[C@]2(C)[C@@H](C)CC[C@H]3C(C)(C)[C@H]1O [Compound (50b), (6a R, 7 S, 9a S, 11 R, 12 S, 13a S)-12-acetoxy-2,3,6,6a,7,8,9,9a, 10, 11, 12, 13-dodecahydro-5,11-dihydroxy-6a, 7, 10, 10-tetramethyl-3-oxo-1H-benzo[8,8a][1]benzopyrano[2,3-e]isoindole]	0.01 (≈ 0.0225 µM)	> 10	–
C[C@H]1CC[C@H]2C(C)(C)[C@@H](O)[C@@H](OC(=O)c3ccccc3)C[C@]23Oc2c(c(O)cc4c2CNC4=O)C[C@]13C [Compound (50c), (6a R, 7 S, 9a S, 11 R, 12 S, 13a S)-12-benzoyloxy-2,3,6,6a, 7,8,9,9a, 10, 11, 12, 13-dodecahydro-5,11-dihydroxy-6a, 7, 10, 10-tetramethyl-3-oxo-1H-benzo[8,8a][1]benzopyrano[2,3-e]isoindole]	0.05 (≈ 0.0989 µM)	5 to 10 (≈ 9.89 to 19.8 µM)	–
C[C@H]1CC[C@H]2C(C)(C)[C@@H](O)[C@@H](OS(C)(=O)=O)C[C@]23Oc2c(c(O)cc4c2CNC4=O)C[C@]13C [Compound (50d), (6a R, 7 S, 9a S, 11 R, 12 S, 13a S)-2,3,6,6a, 7,8,9,9a, 10, 11,12,13-dodecahydro-5,11-dihydroxy-6a, 7,10, 10-tetramethyl-12-methanesulfonyloxy-3-oxo-1H-benzo[8,8a][1]benzopyrano[2,3-e]isoindole]	0.0016 (≈ 0.00334 µM)	> 10	–
C[C@H]1CC[C@H]2C(C)(C)[C@@H](O)[C@@H](OS(=O)(=O)c3ccccc3)C[C@]23Oc2c(c(O)cc4c2CNC4=O)C[C@]13C [Compound (50e), (6a R, 7 S, 9a S, 11 R, 12 S, 13a S)-2,3,6,6a, 7,8,9,9a, 10, 11,12,13-dodecahydro-5,11-dihydroxy-6a, 7, 10, 10-tetramethyl-12-phenylsulfonyloxy-3-oxo-1H-benzo[8,8a][1]benzopyrano[2,3-e]isoindole]	0.0016 to 0.0032 (≈ 0.00295 to 0.00591 µM)	> 10	–
C[C@H]1CC[C@H]2C(C)(C)C(=NO)CC[C@]23Oc2c(c(O)cc4c2CNC4=O)C[C@]13C [Compound (51a), (6a R, 7 S, 9a S, 13a S)-2,3,6,6a, 7,8,9,9a, 10, 11, 12, 13-dodecahydro-5-hydroxy-11-hydroxyimino-6a, 7, 10, 10-tetramethyl-3-oxo-1H-benzo[8,8a][1]benzopyrano[2,3-e]isoindole]	0.0016 (≈ 0.00402 µM)	> 10	–
CON=C1CC[C@@]23Oc4c(c(O)cc5c4CNC5=O)C[C@]2(C)[C@@H](C)CC[C@H]3C1(C)C [Compound (51b), (6a R, 7 S, 9a S, 13a S)-2,3,6,6a, 7,8,9,9a, 10, 11, 12, 13-dodecahydro-5-hydroxy-11-methoxyimino-6a, 7, 10, 10-tetramethyl-3-oxo-1H-benzo[8,8a][1]benzopyrano[2,3-e]isoindole]	0.003 (≈ 0.00727 µM)	5 to 10 (≈ 12.1 to 24.2 µM)	–
C[C@H]1CC[C@H]2C(C)(C)C(=NNC(N)=O)CC[C@]23Oc2c(c(O)cc4c2CNC4=O)C[C@]13C [Compound (51d), (6a R, 7 S, 9a S, 13a S)-2,3,6,6a, 7,8,9,9a, 10, 11, 12, 13-dodecahydro-5-hydroxy-6a, 7, 10, 10-tetramethyl-3-oxo-11-ureidoimino-1H-benzo[8,8a][1]benzopyrano[2,3-e]isoindole]	0.005 (≈ 0.0113 µM)	> 10	–
C[C@H]1CC[C@H]2C(C)(C)C(=NN3CCOCC3)CC[C@]23Oc2c(c(O)cc4c2CNC4=O)C[C@]13C [Compound (51f), (6aR, 7S, 9aS, 13aS)-2,3,6,6a, 7,8,9,9a, 10, 11, 12, 13-dodecahydro-5-hydroxy-6a, 7, 10, 10-tetramethyl-11-(1-oxa-4-azacyclohex-4-yl)imino-3-oxo-1H-benzo[8,8a][1]benzopyrano[2,3-e]isoindole]	0.05 (≈ 0.107 µM)	25 (≈ 53.5 µM)	–
CC(=O)O[C@@H]1C(=NO)C[C@@]23Oc4c(c(O)cc5c4CNC5=O)C[C@]2(C)[C@@H](C)CC[C@H]3C1(C)C [Compound (53b), (6aR, 7S, 9aS, 11S, 13aS)-11-acetoxy-2,3,6,6a, 7,8,9,9a, 10, 11, 12, 13-dodecahydro-5-hydroxy-12-hydroxyimino-6a, 7, 10, 10-tetramethyl-3-oxo-1H-benzo[8,8a][1]benzopyrano[2,3-e]isoindole]	0.08 (≈ 0.175 µM)	> 10	–
C[C@H]1CC[C@H]2C(C)(C)[C@@H](O)CC[C@]23Oc2c(c(OP(=O)(O)O)cc4c2CNC4=O)C[C@]13C.[Na] [Compound (59a), (6aR, 7S, 9aS, 11S, 13aS)-2,3,6,6a, 7,8,9,9a, 10, 11, 12, 13-dodecahydro-11-hydroxy-5-dihydroxyphosphinyloxy-6a, 7,10, 10-tetramethyl-3-oxo-1H-benzo[8,8a][1]benzopyrano[2,3-e]isoindole monosodium salt]	–	> 10	0.001
C[C@H]1CC[C@H]2C(C)(C)[C@H](O)CC[C@]23Oc2c(c(OP(=O)(O)O)cc4c2CNC4=O)C[C@]13C.[Na] [Compound (59b), (6a R, 7 S, 9a S, 11 R, 13a S)-2,3,6,6a, 7,8,9,9a, 10, 11, 12, 13-dodecahydro-11-hydroxy-5-dihydroxyphosphinyloxy-6a, 7, 10,10-tetramethyl-3-oxo-1H-benzo[8,8a][1]benzopyrano[2,3-e]isoindole monosodium salt]	–	> 10	0.001
C[C@H]1CC[C@H]2C(C)(C)C(=NO)CC[C@]23Oc2c(c(OP(=O)(O)O)cc4c2CNC4=O)C[C@]13C.[Na] [Compound (64), (6aR, 7S, 9aS, 13aS)-2,3,6,6a, 7,8,9,9a, 10, 11, 12, 13-dodecahydro-11-hydroxyimino-5-dihydroxyphosphinyloxy-6a, 7, 10, 10-tetramethyl-3-oxo 1H-benzo[8,8a][1]benzopyrano[2,3-e]isoindole monosodium salt]	–	> 10	0.001
C[C@@H]1NC(=O)c2cc(O)c3c(c21)O[C@@]12CC[C@H](O)C(C)(C)[C@@H]1CC[C@H](C)[C@@]2(C)C3 [Compound (67a), (1S, 6aR, 7S, 9aS, 11S, 13aS)-2,3,6,6a, 7,8,9,9a, 10, 11, 12, 13-dodecahydro-5, 11-dihydroxy-1,6a, 7, 10, 10-pentamethyl-3-oxo-1H-benzo[8,8a][1]benzopyrano[2,3-e]isoindole]	0.016 (≈ 0.04 µM)	6.3 to 12.5 (≈ 15.8 to 31.3 µM)	–
